Columns and labels:
Type in all cases: cell-based
[1] = system: cells in which murA is regulated by PBAD; assay: MIC by microbroth dilution in E. coli under-expressing murA; settings: for MIC with decreasing regulator (L-arabinose) level: FIG. 4; for sensitivity on under-expression of murA: FIG. 6
Method: The wild-type gene murA, which encodes the enzyme UDP-N-acetylglucosamine enolpyruvate transferase, was knocked out in E. coli, and the gene was placed under ectopic expression in the yibD locus under regulation by PBAD with the regulator, L-arabinose.
Methods. […] IPTG was added to a final concentration of 0.1 mM and anhydrous-tetracycline was added to a final concentration of 100 ng/ml to the culture media for routine growth of GTC-EC#313 and GTC-EC#346, respectively.
The specificity and sensitivity of the resultant colonies to added drugs were followed by measuring the minimal inhibitory concentration (MIC) of trimethoprim, sulfamethozasone, phosphomycin and D-cycloserine at varying regulator levels. This was performed according to NCCLS (National Center for Clinical Laboratory Standards) recommendations(NCCLS, 1997, METHODS FOR DILUTION ANTIMICROBIAL SUSCEPTIBILITY TESTS FOR BACTERIA THAT GROW AEROBICALLY, 4th ed.; approved standard. NCCLS document M7-A4. NCCLS, Wayne, Pa.), in 100 μl volume in 96-well format, with serial two-fold dilutions of drug concentration.

[2] = system: B. subtilis NO-347 (BD170 thrC::Pspac-murA kanR ΔmurA::CmR); assay: MIC by microbroth dilution in B. subtilis under-expressing murA; settings: IPTG 0-0.1 mM, compared to the control strain, FIG. 10
Method: Materials and Methods. The materials are the same as discussed above. Plasmids are listed in Table 4 B. subtilis strains were routinely grown in LB media or on LB agar plates containing 1.5% agar (Sambrook et al., MOLECULAR CLONING: A LABORATORY MANUAL, 2nd ed., Cold Spring Harbor Laboratory Press, 1989). MIC determination is performed using microbroth dilution-cultures grown in Mueller Hinton broth in 96-well microtiter plates purchased from Nunc (Plates—Cat. No. 262162; Lids—Cat. No. 264122). When required, media were supplemented with 5 μg/ml chloramphenicol or 10 μg/ml kanamycin. IPTG was added to culture media at a final concentration of 0.05 mM for routine culture growth of B. subtilis NO-347 (BDI70 thrC::Pspac-murA kan^R ΔmurA::Cm^R), which is dependent on IPTG for growth.
The endogenous murA gene in NO-360 was deleted by allelic replacement as follows (see FIG. 9). DNA fragments flanking the 5′ and 3′ ends of the murA gene were amplified from B. subtilis 168 genomic DNA using primer pairs KO mura F1+R2 and KO murA F2+R1, respectively. The 5′ and 3′ flanking fragments were linked to the Cm^R gene from pEVP3 using the cross-over PCR technique with the primer pair KO mura F1+R1. The resulting PCR product (shown in FIG. 9B) was used to transform naturally competent B. subtilis NO-360. Cm^R clones were selected in the presence of 0.01 mM and 0.05 mM IPTG. Allelic replacement of murA in Cm^R clones was verified by PCR. Strain NO-347 (BD170 thrC::Pspac-murA Kan^R ΔmurA::Cm^R) was chosen for MIC determinations for phosphomycin in presence of various concentrations of the regulator IPTG.
MIC determinations. Determination of minimum inhibitory concentration (MIC) for phosphomycin, novobiocin, erythromycin and trimethoprim lactate were performed in 96-well microliter plates using the microbroth dilution technique as described in NCCLS. 1997. Methods for dilution antimicrobial susceptibility tests for bacteria that grow aerobically-fourth edition; approved standard. NCCLS document M7-A4. NCCLS, Wayne, Pa. For MIC determinations using strain NO-347, various concentrations (0-0.1 mM) were added to the media. Growth was quantitated by OD600 measurements using a SpectroMax 250 plate reader (Molecular Devices).

[3] = system: E. coli MC1061, Ec211, Ec261, Ec239, Ec238; assay: Transformation selection: growth on drug plates of strains over-expressing folA or murA; settings: for growth on MHB plates supplemented with drug: 5 μg/ml trimethoprim or 25 μg/ml phosphomycin, no L-arabinose, all strains, FIG. 15
From the text: Methods. The genes folA, and murA were amplified from the genomic DNA of E. coli. Each gene was independently cloned in frame into pBAD/Myc-HisB vector, such that expression of the gene is under the regulation of the promoter PBAD. Hexahistidine encoding tags were incorporated into the 3′ end of the gene encoding the C-terminus of the protein through primer design. The construct introduced into the host cells of E. coli MC1061, resulting in Ec211 (construct with folA) and Ec261 (construct with murA).
The entire vector region (araC, PBAD, folA or murA, ampicillin resistance gene) of the above two constructs, but minus the origin, was PCR amplified through primer pairs homologous to regions flanking the origin. The PCR products were then linked at their 5′ ends to the 1 kb region upstream of yibD locus, and linked at their 3′ ends to the 1 kb region downstream of E. coli yibD locus (in effect, replacing yibD) by “crossover PCR” (Kim et al., 1996 Biotechniques 20: 954-5). The linear DNA product was gel purified and introduced into competent and recombinogenic MC1061. Recombinogenic ability was supplied by the red/gam function of plasmid pTP223.
Ec211, […], Ec238, Ec239, and MC1061 were freshly streaked onto Mueller Hinton Broth (MHB) plates. After an overnight incubation at 37° C., they were streaked into different segments onto different selection plates in the order of MHB supplemented with 5 μg/ml trimethoprim, MHB supplemented with 5 μg/ml trimethoprim and 0.1% L-arabinose, MHB supplemented with 25 μg/ml phosphomycin, MHB supplemented with 25 μg/ml phosphomycin and 0.1% L-arabinose, MHB supplemented with 0.1% L-arabinose, and finally plain MHB plates. The plates are 10 cm circular plates filled with 30 ml of media and divided into 6 equal segments. MC1061 was streaked in the first segment, Ec211 in second, Ec261 in third, Ec239 in fourth, Ec238 in fifth and the sixth segment was left blank.

Structure (SMILES)	MIC with decreasing regulator (L-arabinose) level [1]	sensitivity on under-expression of murA [1]	sensitivity (MIC) on regulated under-expression of murA [2]	growth on MHB plates supplemented with drug [3]	growth on MHB plates with drug and L-arabinose (over-expression rescue) ([3]; 25 μg/ml phosphomycin and 0.1% L-arabinose, Ec261 (multiple copies of murA) and Ec238 (two copies of murA))	growth on MHB plates with drug and L-arabinose (over-expression rescue) ([3]; 5 μg/ml trimethoprim and 0.1% L-arabinose, Ec211 (multiple copies of folA, PBAD))
C[C@@H]1O[C@@H]1P(=O)(O)O [phosphomycin]	decreases	hypersensitivity	increased sensitivity	Nothing grew	grew up	–
COc1cc(Cc2cnc(N)nc2N)cc(OC)c1OC [trimethoprim]	relatively unchanged	not sensitive	does not affect sensitivity	Nothing grew	–	the only strain that grew up

From patent publication US20030108872A1, “Genomics-assisted rapid identification of targets” (priority 2000, published 2003)
